Earlier results on one molecule are cited in article PMC10035389, “Safety, Tolerability, and Pharmacokinetics of TAK-931, a Cell Division Cycle 7 Inhibitor, in Patients with Advanced Solid Tumors: A Phase I First-in-Human Study” (Cancer Research Communications, 2022).

The subject of the data set is patients with advanced solid tumors. To be noted: human, in vivo; cited from earlier work.

`C[C@@]1(c2ncncc2F)NC(=O)c2cc(-c3cn[nH]c3)ccc21` [LY3143921]: the “Rate of drug-related orthostatic hypotension” value is 50%.
